Experimental data reported in PMC9276671, “A first-in-human Phase I dose-escalation trial of the novel therapeutic peptide, ALM201, demonstrates a favourable safety profile in unselected patients with ovarian cancer and other advanced solid tumours” (British Journal of Cancer, 2022).
No end group written: not given here.

Experiment: Plasma pharmacokinetics of ALM201 in Phase I patients (validated LC-MS/MS, Phoenix WinNonlin)
Conditions: human, plasma, sc; for Tmax: median; for Tmax / AUC(0-t) / Cmax: plasma LC-MS/MS; for AUC(0-t): AUC0-t; for AUC(0-t) / Cmax: Gmean (CV)
[1] = 300 mg, 300 mg SC, day 1 cycle 1, n = 3
[2] = 300 mg, 300 mg SC, day 3 cycle 1, n = 3
[3] = 300 mg, 300 mg SC, day 18 cycle 2, n = 3
[4] = 300 mg, 300 mg SC, day 18 cycle 4, n = 1
[5] = 300 mg, 300 mg SC, day 18 cycle 6, n = 1

IRQQPRDPPTETLELEVSPDPAS [ALM201]
level at 6 h (200 mg, Plasma concentration, geometric mean (CV%), 200 mg SC, day 1 cycle 1, 6 h after dosing, n = 4, LC-MS/MS): 518 ng/mL | level at 0.5 h (200 mg, Plasma concentration, geometric mean (CV%), 200 mg SC, day 3 cycle 1, 0.5 h after dosing, n = 4, LC-MS/MS): 1090 ng/mL | level at 1 h (200 mg, Plasma concentration, geometric mean (CV%), 200 mg SC, day 3 cycle 1, 1 h after dosing, n = 3, LC-MS/MS): 1410 ng/mL | level at 1.5 h (200 mg, Plasma concentration, geometric mean (CV%), 200 mg SC, day 3 cycle 1, 1.5 h after dosing, n = 4, LC-MS/MS): 1320 ng/mL | level at 2 h (200 mg, Plasma concentration, geometric mean (CV%), 200 mg SC, day 3 cycle 1, 2 h after dosing, n = 4, LC-MS/MS): 1540 ng/mL | level at 3.5 h (200 mg, Plasma concentration, geometric mean (CV%), 200 mg SC, day 3 cycle 1, 3.5 h after dosing, n = 4, LC-MS/MS): 1250 ng/mL | level at 5 h (200 mg, Plasma concentration, geometric mean (CV%), 200 mg SC, day 3 cycle 1, 5 h after dosing, n = 4, LC-MS/MS): 958 ng/mL | level at 0.5 h (200 mg, Plasma concentration, geometric mean (CV%), 200 mg SC, day 18 cycle 1, 0.5 h after dosing, n = 3, LC-MS/MS): 811 ng/mL | level at 1 h (200 mg, Plasma concentration, geometric mean (CV%), 200 mg SC, day 18 cycle 1, 1 h after dosing, n = 3, LC-MS/MS): 1260 ng/mL | level at 1.5 h (200 mg, Plasma concentration, geometric mean (CV%), 200 mg SC, day 18 cycle 1, 1.5 h after dosing, n = 2 values (CV NC), LC-MS/MS): 1670 ng/mL | level at 2 h (200 mg, Plasma concentration, geometric mean (CV%), 200 mg SC, day 18 cycle 1, 2 h after dosing, n = 2 values (CV NC), LC-MS/MS): 1580 ng/mL | level at 3.5 h (200 mg, Plasma concentration, geometric mean (CV%), 200 mg SC, day 18 cycle 1, 3.5 h after dosing, n = 3, LC-MS/MS): 1130 ng/mL | level at 5 h (200 mg, Plasma concentration, geometric mean (CV%), 200 mg SC, day 18 cycle 1, 5 h after dosing, n = 3, LC-MS/MS): 890 ng/mL | level at 0.5 h (200 mg, Plasma concentration, geometric mean (CV%), 200 mg SC, day 18 cycle 2, 0.5 h after dosing, n = 2, LC-MS/MS): 1210 ng/mL | level at 1 h (200 mg, Plasma concentration, geometric mean (CV%), 200 mg SC, day 18 cycle 2, 1 h after dosing, n = 2, LC-MS/MS): 1470 ng/mL | level at 1.5 h (200 mg, Plasma concentration, geometric mean (CV%), 200 mg SC, day 18 cycle 2, 1.5 h after dosing, n = 2, LC-MS/MS): 1890 ng/mL | level at 2 h (200 mg, Plasma concentration, geometric mean (CV%), 200 mg SC, day 18 cycle 2, 2 h after dosing, n = 2, LC-MS/MS): 1360 ng/mL | level at 3.5 h (200 mg, Plasma concentration, geometric mean (CV%), 200 mg SC, day 18 cycle 2, 3.5 h after dosing, n = 2, LC-MS/MS): 911 ng/mL | level at 5 h (200 mg, Plasma concentration, geometric mean (CV%), 200 mg SC, day 18 cycle 2, 5 h after dosing, n = 2, LC-MS/MS): 690 ng/mL | level at 0.5 h (200 mg, Plasma concentration, geometric mean (CV%), 200 mg SC, day 18 cycle 4, 0.5 h after dosing, n = 2, LC-MS/MS): 1080 ng/mL | level at 1 h (200 mg, Plasma concentration, geometric mean (CV%), 200 mg SC, day 18 cycle 4, 1 h after dosing, n = 2, LC-MS/MS): 1410 ng/mL | level at 1.5 h (200 mg, Plasma concentration, geometric mean (CV%), 200 mg SC, day 18 cycle 4, 1.5 h after dosing, n = 2, LC-MS/MS): 1150 ng/mL | level at 2 h (200 mg, Plasma concentration, geometric mean (CV%), 200 mg SC, day 18 cycle 4, 2 h after dosing, n = 2, LC-MS/MS): 1500 ng/mL | level at 3.5 h (200 mg, Plasma concentration, geometric mean (CV%), 200 mg SC, day 18 cycle 4, 3.5 h after dosing, n = 2, LC-MS/MS): 1310 ng/mL | level at 5 h (200 mg, Plasma concentration, geometric mean (CV%), 200 mg SC, day 18 cycle 4, 5 h after dosing, n = 2, LC-MS/MS): 975 ng/mL | Tmax (200 mg, 200 mg SC, day 1 cycle 1, n = 4): 2.5 h | Tmax (200 mg, 200 mg SC, day 3 cycle 1, n = 4): 2 h | Tmax (200 mg, 200 mg SC, day 18 cycle 1, n = 3): 2.03 h | Tmax (200 mg, 200 mg SC, day 18 cycle 2, n = 2): 1.54 h | Tmax (200 mg, 200 mg SC, day 18 cycle 4, n = 2): 1.57 h | AUC(0-t) [1]: 11900 ng·h/mL | AUC(0-t) [2]: 12500 ng·h/mL | AUC(0-t) [3]: 10400 ng·h/mL | AUC(0-t) [4]: 8600 ng·h/mL | AUC(0-t) [5]: 26700 ng·h/mL | Cmax [1]: 2550 ng/mL | Cmax [2]: 2690 ng/mL | Cmax (300 mg, 300 mg SC, day 18 cycle 1, n = 3): 2880 ng/mL | Cmax [3]: 2780 ng/mL | Cmax [4]: 2140 ng/mL | Cmax [5]: 6830 ng/mL | level at 0.25 h (300 mg, Plasma concentration, geometric mean (CV%), 300 mg SC, day 1 cycle 1, 0.25 h after dosing, n = 3, LC-MS/MS): 1050 ng/mL | level at 0.75 h (300 mg, Plasma concentration, geometric mean (CV%), 300 mg SC, day 1 cycle 1, 0.75 h after dosing, n = 3, LC-MS/MS): 1970 ng/mL | level at 1.5 h (300 mg, Plasma concentration, geometric mean (CV%), 300 mg SC, day 1 cycle 1, 1.5 h after dosing, n = 3, LC-MS/MS): 2250 ng/mL
